According to US7906515B2, “Cancer treatment with topoisomerase-II inhibitor, a bis-dioxypiperazine and radiation” (Topotarget A/S, priority 2004, dated 2011):
Entries after “also recorded” stand apart in the source; their conditions may differ. Like-named read-outs stand apart in the source and are kept apart here. Blank lines part the entries; values can stand above or below the compound they belong to.

How the values were obtained:
[1] = Histological evaluation of the blood brain barrier and blood tumour barrier by dye staining; assay type: in vivo; details: day 3 after tumour implantation; 5 mice per dye
Description: Following anaesthesia by hypnorm/dormicum 25 uL of Evans Blue Dye or 80 uL of Lissamine Green was administered by a tail-vein. After allowing the dye to circulate, animals were perfused transcardially with a 4% formalin solution for 5 minutes. The brain was kept in formalin 4%, and […] thick slices were cut on a vibratome and evaluated visually for staining. A check for positive stain of organs was performed before inclusion of the animal in the evaluation of staining of the brain and tumour. Evans Blue Dye and Lissamine Green were obtained from Sigma-Aldrich (Vallensbaek, DK) and prepared fresh as a 2% solution in isotonic saline.
(§1) Experiments with Evans blue dye, Lissamine Green and 3H-etoposide were done on day 3, with preparations as described for treatment efficacy experiments.

[2] = system: Ehrlich Ascites tumour cells; experiment: Clonogenic survival in soft agar after drug with or without concurrent radiotherapy; details: for Cell-kill interaction of etoposide with radiotherapy: increasing concentrations of etoposide, 150 minutes exposure
[3] = system: topoisomerase-II; details: in vitro, cited from earlier work
[4] = system: Ehrlich Ascites tumour cells; experiment: Treatment efficacy: survival of mice with intracerebrally implanted Ehrlich Ascites tumour; assay type: in vivo, B6D2F1 female mice
Description: B6D2F1 female mice from Taconic M&B (Ry, Denmark) were housed in cages of 9 with free access to water and Altromi laboratory diet from Brogaarden (Gentofte, DK). They weighed 19-22 grams at inclusion in protocol. Animals that deteriorated clinically during the experiment were euthanised, and the experiments were approved by the Danish Animal Experimentation Inspectorate.
A total of 15×10^4 Ehrlich Ascites tumour cells in 30 uL saline were implanted into the right temporal hemisphere during short CO2 anaesthesia on day 0 and treated on day 3. Treatment was scheduled as follows: dexrazoxane at t=0, etoposide at t=20 minutes and radiation treatment at t=50 minutes. Before the radiotherapy procedure a light anaesthesia was administered, to achieve compliance.
This way we obtained a simple and reliable method of comparison.
Efficacy of chemoradiotherapy compared to radiotherapy alone was calculated as: […]
Median survival after chemotherapy compared to radiotherapy alone was calculated as:
The absolute numeric difference in median survival time after chemotherapy alone compared to radiotherapy alone was simply calculated as: Difference in survival (days)=MS radiotherapy−MS chemotherapy Eq. 3)
Survival times within the separate experimental treatment groups were compiled, and presented in Kaplan-Meier plots. P-values from Logrank tests comparing survival in experimental groups compared to radiotherapy alone are shown.
The dose-rate was 4.7 Gy/minute.
Dexrazoxane (Zinecard®) was obtained from Pharmacia (Kalamazoo, Mich.) and further diluted in Ringer-lactate. Etoposide (Vepesid™) was obtained as a ready to administer liquid solution from Pharmacia A/S (Copenhagen, DK) and diluted to final concentration in isotonic saline. 3H-etoposide was obtained from Moravek (Calif., USA) and kept at −20° C. All drugs were administered by the intra-peritoneal (ip.) route.

[5] = Brain and tumour uptake using tritiated etoposide; assay type: in vivo, mice; details: ten minutes after ip administration
Description: Tritium-labelled etoposide was mixed with either “cold” etoposide 9.0 mg/ml, “cold” etoposide 0.9 mg/ml or isotonic saline, all in a final volume of 200 uL. Ten minutes after the administration mice were anaesthetized by CO2, blood was collected and plasma was separated. […] Tumour and unaffected contra-lateral brain were removed under a surgical microscope, weighed and sonicated. Activity was measured in a liquid scintillation counter from Packard (US), and counts/gram in brain and tumour was compared to concurrent plasma values.
as §1

[6] = Etoposide area under the curve after intra-peritoneal treatment; assay type: in vivo; details: own experiments, data unpublished
Description: Following intra-peritoneal treatment with etoposide, approximately 95% of the total etoposide area under the curve is covered within 150 minutes after administration (own experiments, data unpublished). […] Ehrlich Ascites tumour cells were incubated in etoposide or dexrazoxane for 30 minutes before irradiation, and then allowed further 120 minutes post-irradiation drug incubation, resulting in a total duration of exposure of 150 minutes.

[7] = system: topoisomerase II; details: cited from earlier work
[8] = system: brain metastasis from SCLC; details: cited from earlier work
[9] = concurrent teniposide and WBRT, phase III trial

Colouration of brain or tumour tissue after tail-vein administration [1]: no colouration of brain or tumour tissue
Structure (SMILES): Cc1cc(-c2ccc(/N=N/c3ccc4c(S(=O)(=O)[O-])cc(S(=O)(=O)[O-])c(N)c4c3O)c(C)c2)ccc1/N=N/c1ccc2c(S(=O)(=O)[O-])cc(S(=O)(=O)[O-])c(N)c2c1O.[Na+].[Na+].[Na+].[Na+] [Evans blue dye]

Colouration of brain or tumour tissue after tail-vein administration [1]: no colouration of brain or tumour tissue
Structure (SMILES): CN(C)c1ccc(C(=C2C=CC(=[N+](C)C)C=C2)c2c(O)c(S(=O)(=O)[O-])cc3cc(S(=O)(=O)[O-])ccc23)cc1.[Na+] [Lissamine Green]

Structure (SMILES): C[C@@H](CN1CC(=O)NC(=O)C1)N1CC(=O)NC(=O)C1 [dexrazoxane, (S)-(+)-1,2-Bis(3,5-dioxopiperazin-1-yl)propane]
Toxicity of drug alone in clonogenic survival ([2]; dexrazoxane alone): non-toxic | Radio-enhancing effect in clonogenic survival ([2]; fixed doses of dexrazoxane 25 μM or 125 μM, increasing radiotherapy doses): no radio-enhancing effect; also recorded: no effect at all | Effect on toxicity from etoposide in clonogenic assay [3]: antagonises toxicity from etoposide | Formation of DNA strand breaks induced by topoisomerase-II poisons [3]: inhibits the formation of DNA strand breaks | Survival after drug alone ([4]; dexrazoxane 125 mg/kg alone): increased survival a little | Effect on survival in combination with radiotherapy ([4]; dexrazoxane 125 mg/kg and concurrent 10 Gy): neither dexrazoxane 125 mg/kg (FIG. 1D) nor solvent affected survival in combination with radiotherapy | Difference in survival, days lost from ineffective treatment (Eq. 3) ([4]; dexrazoxane 125 mg/kg ip alone, compared to radiotherapy): 5 days

Structure (SMILES): COc1cc([C@@H]2c3cc4c(cc3[C@@H](O[C@@H]3O[C@@H]5CO[C@@H](C)O[C@H]5[C@H](O)[C@H]3O)[C@H]3COC(=O)[C@H]23)OCO4)cc(OC)c1O [etoposide, 9-[[4,6-O-(1R)-ethylidene-β-D-glucopyranosyl]oxy]-5,8,8a,9-tetrahydro-5-(4-hydroxy-3,5-dimethoxyphenyl)-(5R,5aR,8aR,9S)-furo[3′,4′:6,7]naphtho[2,3-d]-1,3-dioxol-6(5aH)-one]
Influence of dose, vehicle or dexrazoxane pre-treatment on uptake in tumour [5]: no influence on uptake in tumour | Tumour drug uptake compared to brain [5]: higher than in brain, but statistically insignificant, except after treatment with the low dose of etoposide | Brain/plasma ratio of 3H-etoposide ([5]; etoposide dose-escalation or dexrazoxane 125 mg/kg pre-treatment): Neither etoposide dose-escalation nor pre-treatment with dexrazoxane altered the brain/plasma ratio | Interaction by combination index (Chou and Talalay) ([2]; increasing concentrations of etoposide with radiotherapy): synergism | Cell-kill interaction of etoposide with radiotherapy ([2]; 1.25 Gy): did not result in an increased cell-kill | Cell-kill interaction of etoposide with radiotherapy ([2]; 7.5 Gy): synergistic cell-kill; also recorded: supra-additive cell-kill | Interaction by combination index (Chou and Talalay) ([2]; lowest concentrations of etoposide with radiotherapy): antagonistic | Share of total etoposide area under the curve covered within 150 minutes after administration [6]: approximately 95% | Cell-kill of etoposide in combination with radiotherapy ([3]; literature): synergistic cell-kill | Survival after drug alone ([4]; etoposide 34 mg/kg alone): increased survival | Effect on survival from radiotherapy ([4]; etoposide 34 mg/kg and concurrent 10 Gy): did not enhance survival from radiotherapy

Structure (SMILES): COc1cc([C@@H]2c3cc4c(cc3[C@@H](O[C@@H]3O[C@@H]5CO[C@@H](c6cccs6)O[C@H]5[C@H](O)[C@H]3O)[C@H]3COC(=O)[C@H]23)OCO4)cc(OC)c1O [teniposide]
Potency relative to VP-16 [7]: about 10 fold | Time to cerebral progression ([8]; concurrent teniposide and WBRT versus teniposide alone): significantly increased | Median survival [8, 9]: 3.5 months | Response rate [8, 9]: 57% | Response rate ([8]; teniposide 150 mg/m^2 day 1, 3 and 5, alone, phase II): 33% | Median survival ([8]; teniposide alone, phase III trial): 3.2 months
